Test results from US8822468B2 (Novartis AG, priority 2008, dated 2014).

Each compound was assayed against T1, cMET receptor tyrosine kinase (GST-cMET (969-1390)) (Homo sapiens, UniProt P08581) (assay: EPK cMET profiling assay (LanthaScreen TR-FRET antibody based kinase phosphorylation assay)). Conditions: purified recombinant GST-cMET (969-1390), 2 μM ATP, 50 nM Fluorescein-PolyEAY, 60 minutes at room temperature; read-out: c-Met IC50.
T1 construct: made in house
Assay type: biochemical
Protocol: A number of compounds of the present invention were assayed in an antibody based kinase phosphorylation assay as follows.
EPK cMET Profiling Assay:
The EPK kinase assay for cMET receptor tyrosine kinase was developed, using the purified recombinant GST-fusion protein, containing the cytoplasmic domain of the enzyme. GST-cMET (969-1390) was purified by affinity chromatography.
The kinase assay is based on the LanthaScreen™ technology. LanthaScreen™ is the detection of Time-Resolved Fluorescence Resonance Energy Transfer (TR-FRET) using lanthanide chelates to measure interactions between various binding partners. In a TR-FRET kinase assay, a long-lifetime lanthanide donor species is conjugated to an antibody that specifically binds to a phosphorylated product of a kinase reaction that is labeled with a suitable acceptor fluorophore. This antibody-mediated interaction brings the lanthanide donor and the acceptor into proximity such that resonance energy transfer can take place, resulting in a detectible increase in the FRET signal.
The kinase reactions were performed in 384 well microtiter plates in a total reaction volume of 9.05 μL. The assay plates were prepared with 0.05 μL per well of test compound in the appropriate test concentration, as described under “preparation of compound dilutions”. The reactions were started by combining 4.5 μL of ATP solution with 4.5 μL of enzyme-substrate mix (consisting of kinase and substrate). The final concentrations in the kinase reactions were 35 mM Tris/HCl, 1 mM DTT, 0.025% Tween20, 10 μM sodium orthovanadate, 0.25% BSA, 0.6% DMSO, 10 mM MgCl2, 3 mM MnCl2, 2 μM ATP, 50 nM Fluorescein-PolyEAY, and 0.3 nM enzyme.
The reactions were incubated for 60 minutes at room temperature and stopped by adding 4.5 μL of stop buffer (50 mM EDTA, 0.04% NP40, 20 mM Tris/HCl).
Subsequently 4.5 μL of detection mix (50 mM Tris/HCl, 2 mM DTT, 0.05% Tween20, 20 μM sodium orthovanadate, 1% BSA, 1.72 μg/ml Tb-PY20 antibody) were added to the stopped reactions. After 30 minutes incubation at room temperature, the plates were measured in a BMG Pherastar fluorescence reader. The effect of compound on the enzymatic activity was in all assays obtained from the linear progress curves and determined from one reading (end point measurement).
Test compounds were dissolved in DMSO (10 mM) and transferred into 1.4 mL flat bottom or V-shaped Matrix tubes carrying a unique 2D matrix. The stock solutions were stored at −20° C. if not used immediately. For the test procedure the vials were defrosted and identified by a scanner whereby a working sheet was generated that guided the subsequent working steps.
Compound dilutions were made in 96 well plates. This format enabled the assay of maximally 40 individual test compounds at 8 concentrations (single points) including 4 reference compounds. The dilution protocol included the production of “pre-dilution plates”, “master plates” and “assay plates”.
Pre-dilution plates: 96 polypropylene well plates were used as pre-dilution plates. A total of 4 pre-dilution plates were prepared including 10 test compounds each on the plate positions A1-A10, one standard compound at A11 and one DMSO control at A12. All dilution steps were done on a HamiltonSTAR robot.
Master plates: 100 μL of individual compound dilutions including standard compound and controls of the 4 “pre-dilution plates” were transferred into a 384 “master plate” including the following concentrations 1,820, […], 182, 54.6, 18.2, 5.46, 1.82 and 0.546 μM, respectively in 90% of DMSO.
Assay plates: Identical “assay plates” were then prepared by pipetting 50 nL each of compound dilutions of the “master plates” into 384-well “assay plates” by means of a HummingBird 384-channel dispenser. These plates were used directly for the assay which was performed in a total volume of 9.05 μL. This led to a final compound concentration of 10, 3.0, 1.0, 0.3, 0.1, 0.03, 0.01 and 0.003 μM and a final DMSO concentration of 0.5% in the assay.

T1 sequence (P08581 969-1390): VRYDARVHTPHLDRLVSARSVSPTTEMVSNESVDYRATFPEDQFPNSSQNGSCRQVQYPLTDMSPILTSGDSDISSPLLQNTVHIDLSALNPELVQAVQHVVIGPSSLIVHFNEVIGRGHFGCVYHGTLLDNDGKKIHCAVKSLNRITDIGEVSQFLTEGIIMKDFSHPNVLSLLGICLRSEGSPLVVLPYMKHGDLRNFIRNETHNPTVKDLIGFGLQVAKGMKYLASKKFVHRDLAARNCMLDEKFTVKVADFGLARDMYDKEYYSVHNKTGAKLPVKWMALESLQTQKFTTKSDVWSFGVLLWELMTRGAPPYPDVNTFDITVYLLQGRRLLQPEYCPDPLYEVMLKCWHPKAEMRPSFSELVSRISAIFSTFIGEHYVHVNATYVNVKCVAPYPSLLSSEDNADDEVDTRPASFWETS

| Compound | IC50 [nM] |
| --- | --- |
| C[C@@H](c1ccc2ncn(C)c2c1)c1cnc2ccc(-c3cnn(CCO)c3)nn12 [Example 187, 2-(4-{3-[(S)-1-(3-Methyl-3H-benzoimidazol-5-yl)-ethyl]-imidazo[1,2-b]pyridazin-6-yl}-pyrazol-1-yl)-ethanol] | 19 |
| CCC(C)Nc1ccc2ncc(Cc3ccc4ncccc4c3)n2n1 (stereo not shown) [Example 78, sec-Butyl-(3-quinolin-6-ylmethyl-imidazo[1,2-b]pyridazin-6-yl)-amine] | 9 |
| CN(C)c1ccc2ncc(Cc3ccc4ncccc4c3)n2n1 [Example 106, Dimethyl-(3-quinolin-6-ylmethyl-imidazo[1,2-b]pyridazin-6-yl)-amine] | 74 |
| C[C@@H](c1ccc2ncccc2c1)c1cnc2ccc(Cl)nn12 [Example 273, 6-[(S)-1-(6-Chloro-imidazo[1,2-b]pyridazin-3-yl)-ethyl]-quinoline] | 21 |
| OCCn1cc(-c2ccc3ncc(Cc4ccc(O)cc4)n3n2)cn1 [Example 220, 4-{6-[1-(2-Hydroxy-ethyl)-1H-pyrazol-4-yl]-imidazo[1,2-b]pyridazin-3-ylmethyl}-phenol] | 330 |
| O=[N+]([O-])c1cccc(-c2ccc3ncc(Cc4ccc5ncccc5c4)n3n2)c1 [Example 22, 6-[6-(3-Nitro-phenyl)-imidazo[1,2-b]pyridazin-3-ylmethyl]-quinoline] | 7.4 |
| C[C@H](c1c(F)cc2ncccc2c1F)c1cnc2ccc(-c3cnn(C)c3)nn12 [Example 193, 5,7-Difluoro-6-{(R)-1-[6-(1-methyl-1H-pyrazol-4-yl)-imidazo[1,2-b]pyridazin-3-yl]-ethyl}-quinoline] | 250 |
| CN(C)C1CCN(c2ccc3ncc(Cc4ccc5ncccc5c4)n3n2)CC1 [Example 86, Dimethyl-[1-(3-quinolin-6-ylmethyl-imidazo[1,2-b]pyridazin-6-yl)-piperidin-4-yl]-amine] | 160 |
| Clc1ccc(-c2ccc3ncc(Cc4ccc5ncccc5c4)n3n2)s1 [Example 41, 6-[6-(5-Chloro-thiophen-2-yl)-imidazo[1,2-b]pyridazin-3-ylmethyl]-quinoline] | 56 |
| CC(c1ccc2nccn2c1)c1cnc2ccc(-c3cnn(CCO)c3)nn12 (racemic) [Example 189, (rac)-2-{4-[3-(1-Imidazo[1,2-a]pyridin-6-yl-ethyl)-imidazo[1,2-b]pyridazin-6-yl]-pyrazol-1-yl}-ethanol] | 95 |
| OCCn1cc(-c2ccc3ncc(Cc4cc5cccnc5cc4F)n3n2)cn1 [Example 254, 2-{4-[3-(7-Fluoro-quinolin-6-ylmethyl)-imidazo[1,2-b]pyridazin-6-yl]-pyrazol-1-yl}-ethanol] | 33 |
| Clc1cccc(Nc2ccc3ncc(Cc4ccc5ncccc5c4)n3n2)c1 [Example 121, (3-Chloro-phenyl)-(3-quinolin-6-ylmethyl-imidazo[1,2-b]pyridazin-6-yl)-amine] | 20 |
| c1cnc2ccc(Cc3cnc4ccc(N5CCCC5)nn34)cc2c1 [Example 85, 6-(6-Pyrrolidin-1-yl-imidazo[1,2-b]pyridazin-3-ylmethyl)-quinoline] | 95 |
| C[C@@H](c1c(F)cc2ncccc2c1F)c1cnc2ccc(-c3cnn(CCO)c3)nn12 [Example 184, 2-(4-{3-[(S)-1-(5,7-Difluoro-quinolin-6-yl)-ethyl]-imidazo[1,2-b]pyridazin-6-yl}-pyrazol-1-yl)ethanol] | < 3 |
| O[C@@H]1CCN(c2ccc3ncc(Cc4cc5cccnc5cc4F)n3n2)C1 [Example 262, (R)-1-[3-(7-Fluoro-quinolin-6-ylmethyl)-imidazo[1,2-b]pyridazin-6-yl]-pyrrolidin-3-ol] | 42 |
| CC(c1c(F)cc2ncccc2c1F)c1cnc2ccc(-c3cnn(CCO)c3)nn12 (racemic) [Example 182, (rac)-2-(4-{3-[1-(5,7-Difluoro-quinolin-6-yl)-ethyl]-imidazo[1,2-b]pyridazin-6-yl}-pyrazol-1-yl)ethanol] | 3 |

| Compound | IC50 [nM] |
| --- | --- |
| Clc1ccccc1Nc1ccc2ncc(Cc3ccc4ncccc4c3)n2n1 [Example 128, (2-Chloro-phenyl)-(3-quinolin-6-ylmethyl-imidazo[1,2-b]pyridazin-6-yl)-amine] | 29 |
| OCCNc1ccc2ncc(Cc3ccc4nccn4c3)n2n1 [Example 75, 2-(3-Imidazo[1,2-a]pyridin-6-ylmethyl-imidazo[1,2-b]pyridazin-6-ylamino)-ethanol] | 300 |
| C[C@@H](c1ccc2ncccc2c1)c1cnc2ccc(-c3cnn(C4CCN(C)CC4)c3)nn12 [Example 239, 6-((S)-1-{6-[1-(1-Methyl-piperidin-4-yl)-1H-pyrazol-4-yl]-imidazo[1,2-b]pyridazin-3-yl}-ethyl)quinoline] | 31 |
| [2H]C([2H])(c1ccc2ncccc2c1)c1cnc2ccc(Cl)nn12 [Example 142, 6-[(6-Chloro-imidazo[1,2-b]pyridazin-3-yl)-dideutero-methyl]-quinoline] | 210 |
| Clc1cccc(-c2ccc3ncc(Cc4ccc5ncccc5c4)n3n2)c1 [Example 53, 6-[6-(3-Chloro-phenyl)-imidazo[1,2-b]pyridazin-3-ylmethyl]-quinoline] | 110 |
| Cn1cc(-c2ccc3ncc(Cc4ccc5ncc(C=O)n5c4)n3n2)cn1 [Example 297, 6-[6-(1-Methyl-1H-pyrazol-4-yl)-imidazo[1,2-b]pyridazin-3-ylmethyl]-imidazo[1,2-a]pyridine-3-carbaldehyde] | 130 |
| Clc1ccc2ncc(Cc3ccc4nccn4c3)n2n1 [Example 74, 6-chloro-3-imidazo[1,2-a]pyridin-6-ylmethyl-imidazo[1,2-b]pyridazine] | 200 |
| c1cnc2ccc(Cc3cnc4ccc(-c5ccc6[nH]ccc6c5)nn34)cc2c1 [Example 45, 6-[6-(1H-Indol-5-yl)-imidazo[1,2-b]pyridazin-3-ylmethyl]-quinoline] | 100 |
| CSc1ccc(-c2ccc3ncc(Cc4ccc5ncccc5c4)n3n2)cc1 [Example 23, 6-[6-(4-Methylsulfanyl-phenyl)-imidazo[1,2-b]pyridazin-3-ylmethyl]-quinoline] | 125 |
| OCCN1CCC(n2cc(-c3ccc4ncc(Cc5cc6cccnc6cc5F)n4n3)cn2)CC1 [Example 147, 2-(4-{4-[3-(7-Fluoro-quinolin-6-ylmethyl)-imidazo[1,2-b]pyridazin-6-yl]-pyrazol-1-yl}-piperidin-1-yl)-ethanol] | 82 |
| Cc1nccn1-c1ccc2ncc(Cc3ccc4ncccc4c3)n2n1 [Example 116, 6-[6-(2-Methyl-imidazol-1-yl)-imidazo[1,2-b]pyridazin-3-ylmethyl]-quinoline] | 980 |
| CC(c1cc2cccnc2cc1F)c1cnc2ccc(-c3cnn(CCO)c3)nn12 (racemic) [Example 255] | 36 |
| CCn1cc(-c2ccc3ncc(Cc4ccc5ncccc5c4)n3n2)cn1 [Example 211, 6-[6-(1-Ethyl-1H-pyrazol-4-yl)-imidazo[1,2-b]pyridazin-3-ylmethyl]-quinoline] | 86 |
| Cn1cc(-c2ccc3ncc(Cc4ccc5c(cnn5C)c4)n3n2)cn1 [Example 276, 3-(1-Methyl-1H-indazol-5-ylmethyl)-6-(1-methyl-1H-pyrazol-4-yl)-imidazo[1,2-b]pyridazine] | 82 |
| CN1CCC(Nc2ccc3ncc(Cc4ccc5ncccc5c4)n3n2)CC1 [Example 83, (1-Methyl-piperidin-4-yl)-(3-quinolin-6-ylmethyl-imidazo[1,2-b]pyridazin-6-yl)-amine] | 115 |
